Measured values published in PubChem BioAssay AID248 (DTP/NCI, 2004).
Where “and” joins values, the source holds several entries; their conditions need not be identical. Equal values may be shown once. Inconclusive results and toxic doses are left out.

Test system: L1210 leukemia ip in BDF1 mice, survival T/C
Experiment: NCI In Vivo Anticancer Drug Screen. Data for tumor model L1210 Leukemia (intraperitoneal) in B6D2F1 (BDF1) mice
Conditions: endpoint: mean survival time, higher = longer survival
Summary of the method: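 Each compound was tested against a transplantable tumor grown in mice. The endpoint was survival, with treated animals benchmarked against vehicle controls as a simple ratio.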

[1] = dose: 100.0 mg/kg/injection, schedule: Q04DX002 (ip), vehicle: Klucel (hydroxypropylcellulose) (HPC)
[2] = dose: 200.0 mg/kg/injection, schedule: Q04DX002 (ip), vehicle: Klucel (hydroxypropylcellulose) (HPC)
[3] = dose: 400.0 mg/kg/injection, schedule: Q04DX002 (ip), vehicle: Klucel (hydroxypropylcellulose) (HPC)
[4] = dose: 100.0 mg/kg/injection, schedule: Q01DX009 (ip), vehicle: Klucel (hydroxypropylcellulose) (HPC)
[5] = dose: 200.0 mg/kg/injection, schedule: Q01DX009 (ip), vehicle: Klucel (hydroxypropylcellulose) (HPC)
[6] = dose: 75.0 mg/kg/injection, schedule: Q01DX001 (ip), vehicle: other
[7] = dose: 150.0 mg/kg/injection, schedule: Q01DX001 (ip), vehicle: other

CCOC(=O)C(N)CCSSCCC(N)C(=O)OCC (stereo not given)
T/C (dose: 177.0 mg/kg/injection, schedule: Q01DX001 (ip), vehicle: saline): 92 % of control
T/C (dose: 267.0 mg/kg/injection, schedule: Q01DX001 (ip), vehicle: saline): 92 % of control
T/C (dose: 400.0 mg/kg/injection, schedule: Q01DX001 (ip), vehicle: saline): 95 % of control
T/C (dose: 600.0 mg/kg/injection, schedule: Q01DX001 (ip), vehicle: saline): 104 % of control

CCCCCCCCSCCO
T/C (dose: 12.0 mg/kg/injection, schedule: Q01DX009 (ip), vehicle: saline with Tween-80): 104 % of control
T/C (dose: 25.0 mg/kg/injection, schedule: Q01DX009 (ip), vehicle: saline with Tween-80): 101 % of control
T/C (dose: 50.0 mg/kg/injection, schedule: Q01DX009 (ip), vehicle: saline with Tween-80): 95 % of control
T/C (dose: 50.0 mg/kg/injection, schedule: Q04DX003 (ip), vehicle: saline with Tween-80): 98 % of control
T/C (dose: 100.0 mg/kg/injection, schedule: Q04DX003 (ip), vehicle: saline with Tween-80): 96 % of control
T/C (dose: 200.0 mg/kg/injection, schedule: Q04DX003 (ip), vehicle: saline with Tween-80): 94 % of control
T/C (dose: 400.0 mg/kg/injection, schedule: Q04DX003 (ip), vehicle: saline with Tween-80): 98 % of control

COc1cc(OC)c(NC(=O)Nc2cc([N+](=O)[O-])ccc2C)cc1Cl
T/C [1]: 97 % of control
T/C [2]: 108 % of control
T/C [3]: 114 % of control

c1ccc([CH2][Sn]([c]2ccccc2)([c]2ccccc2)[c]2ccccc2)cc1
T/C (dose: 50.0 mg/kg/injection, schedule: Q01DX009 (ip), vehicle: Klucel (hydroxypropylcellulose) (HPC)): 100 % of control
T/C [4]: 104 % of control
T/C (dose: 100.0 mg/kg/injection, schedule: Q04DX003 (ip), vehicle: Klucel (hydroxypropylcellulose) (HPC)): 101 % of control
T/C [5]: 98 % of control
T/C (dose: 200.0 mg/kg/injection, schedule: Q04DX003 (ip), vehicle: Klucel (hydroxypropylcellulose) (HPC)): 98 % of control
T/C (dose: 400.0 mg/kg/injection, schedule: Q04DX003 (ip), vehicle: Klucel (hydroxypropylcellulose) (HPC)): 101 % of control

C/C=C/CC1(C(C)C)C(=O)NC(=O)NC1=O
T/C [6]: 103 % of control
T/C (dose: 75.0 mg/kg/injection, schedule: Q01DX001 (ip), vehicle: saline): 101 % of control
T/C [7]: 105 % of control
T/C (dose: 150.0 mg/kg/injection, schedule: Q01DX001 (ip), vehicle: saline): 104 % of control

CS(=O)(=O)OCC(=O)NCCCNC(=O)COS(C)(=O)=O
T/C (dose: 17.5 mg/kg/injection, schedule: Q01DX013 (ip), vehicle: other): 123 % of control
T/C (dose: 18.8 mg/kg/injection, schedule: Q01DX015 (ip), vehicle: saline): 122 % of control
T/C (dose: 35.0 mg/kg/injection, schedule: Q01DX013 (ip), vehicle: other): 121 % of control
T/C (dose: 54.0 mg/kg/injection, schedule: Q01DX009 (ip), vehicle: saline): 166 % of control
T/C (dose: 75.0 mg/kg/injection, schedule: Q01DX015 (ip), vehicle: saline): 155 % of control
T/C (dose: 80.0 mg/kg/injection, schedule: Q01DX009 (ip), vehicle: saline): 175 % of control
T/C (dose: 120.0 mg/kg/injection, schedule: Q01DX009 (ip), vehicle: saline): 202 % of control
T/C (dose: 150.0 mg/kg/injection, schedule: Q01DX015 (ip), vehicle: saline): 150 % of control
T/C (dose: 180.0 mg/kg/injection, schedule: Q01DX009 (ip), vehicle: saline): 164 % of control and 195 % of control
T/C (dose: 256.0 mg/kg/injection, schedule: Q01DX009 (ip), vehicle: saline): 118 % of control

O=C1c2ccccc2-c2ccc(-c3ccccc3)c3cccc1c23
T/C (dose: 50.0 mg/kg/injection, schedule: Q04DX002 (ip), vehicle: Klucel (hydroxypropylcellulose) (HPC)): 105 % of control
T/C [1]: 102 % of control
T/C [2]: 98 % of control
T/C (dose: 200.0 mg/kg/injection, schedule: Q04DX002 (ip), vehicle: saline with Tween-80): 105 % of control
T/C (dose: 400.0 mg/kg/injection, schedule: Q04DX002 (ip), vehicle: saline with Tween-80): 98 % of control

CCOC(=O)c1cc(OCC)c2c(ccc3cc(OC)ccc32)n1
T/C [4]: 96 % of control
T/C [5]: 94 % of control
T/C (dose: 400.0 mg/kg/injection, schedule: Q01DX009 (ip), vehicle: Klucel (hydroxypropylcellulose) (HPC)): 93 % of control

O=C(O)C(c1ccccc1)P(=S)(c1ccccc1)c1ccccc1 (stereo not given)
T/C [6]: 89 % of control
T/C [7]: 111 % of control

Cc1ccc(NC(=S)N(CCC#N)C2CCCCC2)cc1C
T/C [1]: 97 % of control
T/C [2]: 90 % of control
T/C [3]: 90 % of control

CC1(C)CSC(=S)N1CCC#N
T/C [6]: 104 % of control

O=[As](O)(O)CCCc1ccccc1
T/C (dose: 6.25 mg/kg/injection, schedule: Q01DX009 (ip), vehicle: Klucel (hydroxypropylcellulose) (HPC)): 108 % of control
T/C (dose: 12.5 mg/kg/injection, schedule: Q01DX009 (ip), vehicle: Klucel (hydroxypropylcellulose) (HPC)): 108 % of control
